Activity calls are given as the source filed them. The rule behind the calls is not given here.
Experiments:
[1] = Selectivity index, ratio of CC50 for mouse L929 cells to IC50 for Trypanosoma cruzi Tulahuen expressing beta-galactosidase gene infected in mouse L929 cells; assay type: toxicity, cell-based; settings: read-out: Ratio CC50/IC50
[2] = Cytotoxicity against mouse RAW264.7 cells measured after 48 hrs; assay type: toxicity, cell-based
Leishmania amazonensis [3] = experiment: Antiparasitic activity against Leishmania amazonensis amastigotes infected in mouse RAW264.7 cells measured after 48 hrs; assay type: functional, organism-based; settings: for IC50: RAW264.7, 48 h
Leishmania infantum [4] = experiment: Antiparasitic activity against Leishmania infantum promastigotes infected in mouse RAW264.7 cells measured after 48 hrs; assay type: functional, organism-based; settings: for IC50: RAW264.7, 48 h
Trypanosoma cruzi [5] = experiment: Antitrypanosomal activity against bloodstream trypomastigote form of Trypanosoma cruzi Y measured after 24 hrs; assay type: functional, organism-based
[6] = Cytotoxicity against mouse L929 cells assessed as inhibition of cell viability measured after 120 hrs; assay type: toxicity, cell-based
Trypanosoma cruzi [7] = experiment: Antitrypanosomal activity against tissue-culture derived trypomastigote form of Trypanosoma cruzi Y measured after 120 hrs; assay type: functional
Trypanosoma cruzi [8] = experiment: Antitrypanosomal activity against Trypanosoma cruzi Tulahuen expressing beta-galactosidase gene infected in mouse L929 cells measured after 120 hrs; assay type: functional, organism-based; settings: L929, 120 h
[9] = target: Cruzipain (Trypanosoma cruzi) (UniProt P25779); experiment: Inhibition of Trypanosoma cruzi cruzain at 100 uM relative to control
Sequence of Cruzipain (Trypanosoma cruzi) (P25779 123-467 limits assumed): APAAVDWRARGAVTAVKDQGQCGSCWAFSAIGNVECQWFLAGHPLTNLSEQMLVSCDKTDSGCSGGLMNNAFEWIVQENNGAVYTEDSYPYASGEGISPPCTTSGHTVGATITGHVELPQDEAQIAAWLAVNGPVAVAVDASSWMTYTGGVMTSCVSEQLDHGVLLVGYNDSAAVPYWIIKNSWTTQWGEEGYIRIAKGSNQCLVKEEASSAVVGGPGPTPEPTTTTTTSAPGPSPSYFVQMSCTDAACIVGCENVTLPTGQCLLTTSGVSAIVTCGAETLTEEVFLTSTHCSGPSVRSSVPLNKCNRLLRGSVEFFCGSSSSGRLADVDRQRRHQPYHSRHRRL

Leishmania infantum [10] = experiment: Antiparasitic activity against Leishmania infantum amastigotes infected in mouse RAW264.7 cells measured after 48 hrs; assay type: functional, organism-based; settings: for IC50: RAW264.7, 48 h
Leishmania amazonensis [11] = experiment: Antiparasitic activity against Leishmania amazonensis promastigotes infected in mouse RAW264.7 cells measured after 48 hrs; assay type: functional, organism-based; settings: for IC50: RAW264.7, 48 h
Leishmania infantum [12] = experiment: Antiparasitic activity against Leishmania infantum; assay type: functional, organism-based
[13] = Selectivity index, ratio of CC50 for mouse RAW264.7 cells to IC50 for Leishmania amazonensis amastigotes infected in mouse RAW264.7 cells; assay type: toxicity, cell-based; settings: read-out: Ratio CC50/IC50
[14] = Selectivity index, ratio of CC50 for mouse RAW264.7 cells to IC50 for Leishmania amazonensis promastigotes infected in mouse RAW264.7 cells; assay type: toxicity, cell-based; settings: read-out: Ratio CC50/IC50
[15] = Selectivity index, ratio of LC50 for mouse peritoneal macrophage cells to IC50 for bloodstream trypomastigote form of Trypanosoma cruzi Y; assay type: toxicity; settings: peritoneal macrophages, read-out: Ratio LC50/IC50
[16] = Selectivity index, ratio of CC50 for mouse RAW264.7 cells to IC50 for Leishmania infantum promastigotes infected in mouse RAW264.7 cells; assay type: toxicity, cell-based; settings: read-out: Ratio CC50/IC50
[17] = Selectivity index, ratio of CC50 for mouse RAW264.7 cells to IC50 for Leishmania infantum amastigotes infected in mouse RAW264.7 cells; assay type: toxicity, cell-based; settings: read-out: Ratio CC50/IC50
[18] = Cytotoxicity against non-infected mouse peritoneal macrophage cells measured after 24 hrs; assay type: toxicity, cell-based; settings: non-infected peritoneal macrophages, read-out: LC50

SMILES	selectivity ratio [1]	CC50 at 48 h [2] [µM]	Activity (Leishmania infantum [4])	IC50 (Trypanosoma cruzi [5]) [µM]	CC50 at 120 h [6] [µM]	LC50 (Trypanosoma cruzi [7]) [µM]	IC50 (Trypanosoma cruzi [8]) [µM]	inhibition [9] [%]	Activity (Leishmania infantum [10])	Activity (Leishmania amazonensis [11])	IC50 (Leishmania amazonensis [3]) [µM]	selectivity ratio [13]	IC50 (Leishmania infantum [4]) [µM]	selectivity ratio [17]	IC50 (Leishmania infantum [10]) [µM]	further results
O=C(N/N=C/c1ccc([N+](=O)[O-])cc1)c1nc2ccccc2[nH]1	> 1.6	84.4	inactive	> 500	> 323	328	202	2	inactive	inactive						Activity (Leishmania amazonensis [3]): inactive
CCCn1c(NC(=O)Cc2ccc(Cl)cc2)nc2ccccc21																IC50 (Leishmania infantum [12]): 12 µM
O=C(N/N=C/c1ccncc1)c1nc2ccccc2[nH]1	8.2	126	inactive	> 500	265	619	32.4	20	inactive	inactive	172	0.7				
O=C(N/N=C/c1ccc(O)c(O)c1)c1nc2ccccc2[nH]1	1.4	14.8		144	102	98.2	72.9	61			62.1	0.2	90.8	0.4	37.8	selectivity ratio [14]: 0.09; selectivity ratio [15]: 0.9; selectivity ratio [16]: 0.2; CC50 at 24 h [18]: 128 µM; IC50 (Leishmania amazonensis [11]): 170 µM
O=C(N/N=C/c1ccccc1O)c1nc2ccccc2[nH]1	14.7	29.2		> 500	52.4	19.9	3.6	4		inactive	104	0.3	23.9	1.3	21.8	selectivity ratio [16]: 1.2
O=C(N/N=C/c1ccccc1)c1nc2ccccc2[nH]1	2.1	123	inactive	> 500	204		98.4	25		inactive	191	0.6		2.3	53.7	
CCCCCCCCCCCCCCCCOP(=O)([O-])OCC[N+](C)(C)C [MILTEFOSINE]		21.8									1.67	13.1	3.92	12.7	1.72	selectivity ratio [14]: 4.2; selectivity ratio [16]: 5.6; IC50 (Leishmania amazonensis [11]): 5.2 µM
O=C(N/N=C/c1ccc(Cl)cc1)c1nc2ccccc2[nH]1	3.5	12.4		> 500	51.9		14.7	3		inactive			> 335	0.4	28.4	Activity (Leishmania amazonensis [3]): inactive
O=C(N/N=C/c1ccc(Br)cc1)c1nc2ccccc2[nH]1	6.8	8.6	inactive	> 500	49.8		7.3	3	inactive	inactive						Activity (Leishmania amazonensis [3]): inactive
COc1cc(/C=N/NC(=O)c2nc3ccccc3[nH]2)cc(OC)c1	5.6	8.94	inactive	> 500	164		29	50	inactive	inactive	71.8	0.1				
O=C(N/N=C/c1ccc(F)cc1)c1nc2ccccc2[nH]1	1.5	57.8	inactive	> 500	354	633	230	17		inactive	> 354			3.1	18.4	
